Literature values in patent US20110092560A1, “TOPICAL COMPOSITION FOR CONTROLLING ECTOPARASITES IN DOGS AND CATS” (CEVA SANTE ANIMALE SA, priority 2008, published 2011).

Columns and labels:
[1] = in vivo
[2] = mouse, in vivo, po

N#Cc1nn(-c2c(Cl)cc(C(F)(F)F)cc2Cl)c(N)c1[S+]([O-])C(F)(F)F (centres unmarked) [fipronil, Fipronil]
carcinogenic, teratogenic or mutagenic potential [1]: not carcinogenic, teratogenic or mutagenic | metabolites eliminated in the faeces [2]: 45-75% | metabolites eliminated in the urine [2]: 5-25% | plasma half-life [2]: 149 to 200 h | tissues in which residues were found [2]: fat, the adrenal glands, pancreas, skin, liver, kidney, and muscle
